In patent publication US8501245B2, “Selectively inhibiting estrogen production and providing estrogenic effects in the human body” (Morinda, Inc., priority 2000, dated 2013):
Values joined by “and” are separate entries in the source; they are usually repeats but may differ in a detail not shown here. Identical values can stand only once.

Tested on: ICR derived female immature mice
Experiment: Protocol # 531000 Estrogenic Agonism in Mice (uterine wet weight)
Type: in vivo
Conditions: 0.03 mg/kg PO; for % Increase in uterine wet weight: compared with historical vehicle control (16.5 mg)
Procedure: Tahitian Noni® Puree Juice Concentrate (TNPJC) dry form was evaluated for possible estrogenic agonism is ICT derived immature female mice at a maximum tolerated dose of 4000 mg/kg administered orally once daily for 3 consecutive days. The dry form of TNPJC resulted from using a Rotor Vap with pressure and low temperature.
Test substance TNCONC was evaluated for possible Estrogenic Agonism in ICR derived female immature mice at a maximum tolerated dose of 4000 mg/kg administered orally once daily for 3 consecutive days.
1. Test Substances and Dosing Pattern—TNCONC, provided by Morinda, Inc., was dissolved in 2% Tween 80/0.9% NaCl. For testing, a maximum tolerated dose of 4000 mg/kg was administered […] daily for 3 consecutive days, and a dosing volume of 10 ml/kg was used.
2. Animals—Female ICR mice provided by MDS Pharma Services—Taiwan Ltd. were used. Space allocation for 5 animals was 29×18×13 cm. Animals were housed in APEC^R cages and maintained in a controlled temperature (22° C.-24° C.) and humidity (60%-80%) environment with 12 hours light dark cycles for at least one week in MDS Pharma Services—Taiwan Laboratory prior to use. Free access to standard lab chow for rats (Lab Diet, Rodent Diet, PMI Nutrition International, USA) and tap water was granted. All aspects of this work including housing, experimentation and disposal of animals were performed in general accordance with the International Guiding Principles for Biomedical Research Involving Animals (CIOMS Publication No. ISBN 92 90360194, 1985),
Test substance was administered at a maximum tolerated dose of 4000 mg/kg IP for three consecutive days to a group of 5 ICR derived immature female mice weighing 13±1 g. The animals were sacrificed 24 hours after the final dose and wet weight of the uterus of each animal was measured. A 50 percent or more (≧50%) increase in uterine wet weight relative to control group of animals indicates possible estrogen agonist activity.
A vehicle or test substance was administered IP for three consecutive days to female immature mice weighing 13±1 g. The animals were sacrificed 24 hours after the final dose and wet weight of the uterus of each animal was determined. A 50 percent or more (≧50%) increase in uterine wet weight relative to the vehicle treated group of animals, shown in parenthesis, indicates possible estrogen agonist activity.

Question: What does the source list for C[C@]12CC[C@@H]3c4ccc(OC(=O)c5ccccc5)cc4CC[C@H]3[C@@H]1CC[C@@H]2O [β-Estradiol 3-Benzoate]?
Answer: Weight of Uterus, Average: 30.2 mg; % Increase in uterine wet weight: (83) %; % Increase in uterine wet weight (listed as Estradiol 3-Bensoate): dramatic increase; % Increase in uterine wet weight (listed as β-Estadiol 3-Benzoate): 83%; Weight of Uterus, Individual (single animals N 1-5): 28.7 mg and 20.7 mg and 31.3 mg and 35.6 mg and 34.9 mg
